The source of these data is US20220387485A1, “METHODS OF TREATING CANCER WITH A COMBINATION OF A PLATINUM-BASED AGENT AND AN ANTI-TISSUE FACTOR ANTIBODY-DRUG CONJUGATE” (priority 2019, published 2022).

Data set [1] has as its system HuPrime® cervical xenograft model CV1248 [P3]. In words: Cervical cancer PDX mouse model, tisotumab vedotin with carboplatin (Example 3). The format is in vivo, BALB/c nude mice. As to conditions: for Tumor growth (FIGS. 3A and 3B): single agent, tisotumab vedotin 2 mg/kg, carboplatin 40 or 80 mg/kg, day 0, 7, 14 intravenous. The protocol:
The in vivo anti-tumor efficacy of tisotumab vedotin in combination with carboplatin was evaluated in a patient-derived xenograft (PDX) mouse model in female BALB/c nude mice (Crown Bioscience [Taicang] Inc.). Xenografts were derived from tumor specimens from cancer patients. Tumor fragments were obtained from xenografts in serial passage in nude mice. Tumors were cut into fragments of 2-4 mm diameter and placed in phosphate-buffered saline (PBS) until subcutaneous implantation. A cervical cancer PDX model (HuPrime® cervical xenograft model CV1248 [P3]; Crown Bioscience Inc.) was used in this experiment. Tumor size was determined by caliper measurement at least two times a week and tumor volume was calculated as […]. When tumors reached an average volume of 150 mm^3, mice were randomized in 7 groups (10 mice per treatment group). The day of randomization was designated day 0. Mice were treated with the following by intravenous injections: 1) tisotumab vedotin alone at a dose level of 2 mg/kg, provided on day 0, day 7 and day 14; 2) carboplatin (Selleck Chemicals, cat. no. S121511) alone at a dose of 40 mg/kg or 80 mg/kg, provided on day 0, day 7 and day 14; 3) tisotumab vedotin at a dose level of 2 mg/kg, provided on day 0, day 7 and day 14 in combination with carboplatin at a dose of 40 mg/kg or 80 mg/kg, provided on day 0, day 7 and day 14; 4) IgG1 isotype control at a dose of 2 mg/kg provided on day 0, day 7 and day 14; or 5) IgG1-MMAE control at a dose of 2 mg/kg provided on day 0, day7 and day 14. […] Mice were housed in individually ventilated (IVC) cages, up to a maximum of five mice per cage and identified by ear tags. To determine whether there were statistically significant differences between tumor volumes in control and treatment groups, tumor volumes in the treatment groups were compared with those in the control group (e.g., treatment groups vs IgG1-MMAE control) and combination treatment groups were compared with groups treated with either of the compounds alone, using Mann-Whitney analysis at the last day that all groups were intact, i.e., day 20. For analysis of progression-free survival time (tumor size cut-off 750 mm^3), Mantel-Cox analysis was performed on Kaplan-Meier plots.

In data set [2] the test system is recurrent or metastatic squamous carcinoma of the uterine cervix. As to conditions: single agent, cited from earlier work.
The subject of data set [3] is stage IVB, recurrent, or persistent squamous cell carcinoma of the cervix. As to conditions: cited from earlier work.
The test system of data set [4] is bladder xenograft model BXF1036. In words: Bladder cancer PDX mouse model, tisotumab vedotin with cisplatin (Example 2). The format is in vivo, Crl:NMRI-Foxn1^nu nude mice. As to conditions: single agent; for Tumor growth (FIG. 2A-C): tisotumab vedotin 0.5 mg/kg day 1 intravenously, cisplatin 2 mg/kg day 1 and 8 subcutaneously; for Survival (FIG. 2D): tisotumab vedotin 0.5 mg/kg, cisplatin 2 mg/kg, tumor size cut-off 500 mm^3. The protocol: The in vivo anti-tumor efficacy of tisotumab vedotin in combination with cisplatin was evaluated in A PDX mouse model in female Crl:NMRI-Foxn1^nu (Envigo RMS SARL, France) nude mice (Charles River Discovery Research Services). Xenografts were derived from tumor specimens from cancer patients. Establishment and characterization of the PDX model was performed following primary implantation into nude mice. Tumor xenografts were passaged approximately three to five times until establishment of stable growth patterns. Tumor fragments were obtained from xenografts in serial passage in nude mice. Tumors were cut into fragments of 3-4 mm diameter and placed in phosphate-buffered saline (PBS) until subcutaneous implantation. A bladder cancer PDX model (bladder xenograft model BXF1036; Charles River Discovery Research Services) was used in this experiment. Tumor size was determined by caliper measurement at least two times a week and tumor volume was calculated as 0.52×length×width. When tumors reached the volume of 50-250 mm^3, mice were randomized in 5 groups (10 mice per treatment group). Mice were treated with the following: 1) tisotumab vedotin alone at a dose level of 0.5 mg/kg provided on day 1 of treatment; 2) cisplatin alone at a dose of 2 mg/kg provided on day 1 and day 8 of treatment; 3) tisotumab vedotin at a dose level of 0.5 mg/kg provided on day 1 of treatment in combination with cisplatin at a dose of 2 mg/kg provided on day 1 and day 8 of treatment; 4) IgG1 isotype control at a dose of 0.5 mg/kg provided on day 1 of treatment; or 5) IgG1-MMAE control at a dose of 0.5 mg/kg provided on day 1 of treatment. IgG1 isotype control, IgG1-MMAE control and tisotumab vedotin were each in PBS and injected intravenously. Cisplatin was in 0.9% NaCl and injected subcutaneously. […] Mice were housed in individually ventilated (IVC) cages, with a maximum of five mice per cage, and identified by ear tags.
To determine whether there were statistically significant differences between tumor volumes in control and treatment groups, tumor volumes in the treatment groups were compared with those in the control groups (e.g., IgG1-MMAE control, tisotumab vedotin alone or cisplatin alone) using Mann-Whitney analysis at the last day that all groups were intact, i.e., day 25. Statistical analysis of the difference between groups treated with tisotumab vedotin in combination with cisplatin and groups treated with either tisotumab vedotin alone or cisplatin alone was performed on day 32.
Tumor progression was plotted in a Kaplan-Meier plot, with a cut-off set at a tumor volume >500 mm^3. […]

Data set [5] concerns HuPrime® cervical xenograft model CV1248 [R4P5]. Nature of the data set: Cervical cancer PDX mouse model, tisotumab vedotin with cisplatin (Example 1). The format is in vivo, BALB/c nude mice. As to conditions: single agent; for Tumor growth (FIG. 1A-C): tisotumab vedotin 2 mg/kg and 4 mg/kg day 0, 7, cisplatin 4 mg/kg day 0, 7, 14, intravenous; for Survival (FIGS. 1D and 1E): tisotumab vedotin 2 mg/kg and 4 mg/kg, cisplatin 4 mg/kg, tumor size cut-off 1000 mm^3. The protocol: The in vivo anti-tumor efficacy of tisotumab vedotin in combination with cisplatin was evaluated in a patient-derived xenograft (PDX) mouse model in BALB/c nude mice (Crown Bioscience Inc.). Xenografts were derived from tumor specimens from cancer patients. Establishment and characterization of the PDX model was performed following primary implantation into nude mice. Tumor xenografts were passaged approximately three to five times until establishment of stable growth patterns. Tumor fragments were obtained from xenografts in serial passage in nude mice. Tumors were cut into fragments of 2-3 mm diameter and placed in phosphate-buffered saline (PBS) until subcutaneous implantation. A cervical cancer PDX model (HuPrime® cervical xenograft model CV1248 [R4P5]; Crown Bioscience Inc.) was used in this experiment. Tumor size was determined by caliper measurement at least two times a week and tumor volume was calculated as 0.5×length×width. When tumors reached the volume of 200 mm^3, mice were randomized in 11 groups (7-8 mice per treatment group). Mice were treated with the following by intravenous injections: 1) tisotumab vedotin alone at a dose level of 0.5 mg/kg, 1 mg/kg, 2 mg/kg or 4 mg/kg provided on day 0 and day 7 of treatment; 2) cisplatin alone at a dose of 4 mg/kg provided on day 0, day 7 and day 14 of treatment; 3) tisotumab vedotin at a dose level of 0.5 mg/kg, 1 mg/kg, 2 mg/kg or 4 mg/kg provided on day 0 and day 7 of treatment in combination with cisplatin at a dose of 4 mg/kg provided on day 0, day 7 and day 14 of treatment; 4) IgG1 isotype control at a dose of 4 mg/kg provided on day 0 and day 7 of treatment; or 5) IgG1-MMAE control at a dose of 4 mg/kg provided on day 0 and day 7 of treatment. […] Mice were housed in individually ventilated (IVC) cages, four or five mice per cage and identified by ear tags.
To determine whether there were statistically significant differences between tumor volumes in control and treatment groups, tumor volumes in the treatment groups were compared with those in the control group (e.g., treatment groups vs IgG1-MMAE control) using Mann-Whitney analysis at the last day that all groups were intact, i.e., day 38. For survival analysis (tumor volume cut-off was 1,000 mm^3). Mantel-Cox analysis was performed on Kaplan-Meier plots with a cut-off set at tumor volume >1,000 mm^3.

Data set [6] concerns PD-L1-positive recurrent or metastatic cervical cancer (r/mCC). The conditions noted are these: 2 L+; 42% of patients previously treated with bevacizumab; cited from earlier work.
The test system of data set [7] is relapsed, recurrent, and/or metastatic cervical cancer. As to conditions: cited from earlier work.

Regarding `N.N.O=C([O-])C1(C(=O)[O-])CCC1.[Pt+2]` [Carboplatin, carboplatin], the “Average tumor volume Mann-Whitney Day 20 P value” in data set [1] (carboplatin 40 mg/kg vs IgG1-MMAE) is recorded as 0.5787. In data set [1] (carboplatin 80 mg/kg vs IgG1-MMAE), the “Average tumor volume Mann-Whitney Day 20 P value” is recorded as 0.1716. Moreover, the “Tumor growth (FIGS. 3A and 3B)” value in data set [1] is “did not inhibit tumor growth”. The overall response rate in data set [2] (6/41) is recorded as 15%. In data set [2], the “major toxic effects: anemia” value is reported as 47%; the “major toxic effects: leukopenia” value is reported as 38%; the “major toxic effects: nausea and vomiting” value is recorded as 48%; the “major toxic effects: thrombocytopenia” value is reported as 22%.
Consider `N.N.[Cl][Pt][Cl]` [Cisplatin], for which the “median PFS” value in data set [3] (P<0.001 between arms) is reported as 2.8 months. For the same compound, the “Objective responses (OR)” value in data set [3] (P=0.002 between arms) was 19%. Besides, in data set [3] (at the time of data cutoff, no difference), the median survival was 8.8 months. In data set [3] (in vivo), the “Objective responses: complete” value is 6% and the “Objective responses: partial” value is recorded as 13%. Also, in data set [4], the “Tumor growth (FIG. 2A-C)” value is recorded as “inhibited tumor growth” and the “Survival (FIG. 2D)” value is “prolonged survival”. For the same compound, in data set [5], the “Tumor growth (FIG. 1A-C)” value is listed as “inhibited tumor growth”; the “Survival (FIGS. 1D and 1E)” value was “prolonged survival”.
For the compound pembrolizumab, the “objective response rate (ORR)” value in data set [6] is recorded as 14%.
As for Tisotumab vedotin, in data set [1], the “Tumor growth (FIGS. 3A and 3B)” value is “efficiently inhibited tumor growth”. Besides, the “Average tumor volume Mann-Whitney Day 20 P value” in data set [1] (tisotumab vedotin 2 mg/kg vs IgG1-MMAE) is on record as 0.0068. For the same compound, in data set [7] (in vivo), the “AEs of grade 1-2 conjunctivitis” value is on record as “frequently reported”; the “Clinically relevant perturbations in activated partial thromboplastin time (aPTT) or prothrombin time (PT)” value is recorded as “have not been observed”; the “Epistaxis, frequency among bleeding AEs” value was “most common reported AE”; the “Epistaxis, severity” value is recorded as “nearly all of the cases are grade 1”. Further, the “Peripheral neuropathy, grade of the majority of the reported cases” value in data set [7] (in vivo) is “grade 1-2”. Besides, in data set [7] (subjects who received treatment with tisotumab vedotin), the “Peripheral neuropathy, share of subjects” value was “approximately 35%”. Further, in data set [4], the “Tumor growth (FIG. 2A-C)” value is on record as “efficiently inhibited tumor growth” and the “Survival (FIG. 2D)” value was “prolonged survival”. Further, in data set [5], the “Tumor growth (FIG. 1A-C)” value was “efficiently inhibited tumor growth”; the “Survival (FIGS. 1D and 1E)” value was “prolonged survival”.
